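Cultured in 96-well plates, cells were exposed to test compound for 48 hours across five concentrations. GI50 marks 50% less growth. Definition used: TGI = concentration required for complete inhibition of growth.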
What was measured:
Assay in all cases: NCI anticancer screen, dose series, 48 h
[1] = system: OVCAR-8 ovarian
[2] = system: A549 NSCLC
[3] = system: MDA-MB-435
[4] = system: MALME-3M melanoma
[5] = system: CCRF-CEM leukemia
[6] = system: LOX IMVI melanoma
[7] = system: NCI/ADR-RES ovarian
[8] = system: UACC-62 melanoma
[9] = system: UACC-257 melanoma
[10] = system: SR leukemia

Compound	TGI [1] [µM]	TGI [2] [µM]	TGI [3] [µM]	TGI [4] [µM]	TGI [5] [µM]	TGI [6] [µM]	TGI [7] [µM]	TGI [8] [µM]	TGI [9] [µM]	TGI [10] [µM]	GI50 [1] [µM]	GI50 [2] [µM]	GI50 [4] [µM]	GI50 [5] [µM]	GI50 [9] [µM]	GI50 [10] [µM]
CCC1(c2ccc(N3C(=O)c4cccc5cc([N+](=O)[O-])cc(c45)C3=O)cc2)CCC(=O)NC1=O (configuration not stated)	28	> 100	> 100	92.2	35	> 70.6	79.8	> 100	> 100							
COc1cc2c(cc1O)C1Cc3ccc(OC)c(O)c3C[N+]1(C)CC2 (configuration not stated)	> 100	> 100	> 100	> 100	> 100	> 100	> 100	> 100								
CC(C)(C)C(=O)Nc1c(C=O)ccc2[nH]cnc12	> 100	> 100	> 100		> 100	> 100	> 100		> 100							
CC(O)c1nc(C#N)c(N)o1 (configuration not stated)	> 100	> 100		> 100	> 100	> 100	> 100	> 100	> 100							
COc1ccccc1NC(=O)C(=O)C(C(=O)c1ccccc1F)C1OC(=O)c2ccccc21 (configuration not stated)	47.2	> 100			67	39.2		34.9	> 100	60.7						
Cc1nc(NC(C)(CO)CO)nc(N/N=C/c2ccc(Cl)cc2)c1C(=O)Nc1ccc(Cl)cc1	> 100	> 100	> 100	> 100	> 100	> 100	> 100	> 100	> 100							
CCOP(=O)(/C=C/n1cc(C)c(=O)[nH]c1=O)OCC	> 100	> 100	> 100		> 100	> 100	> 100	> 100	> 100							
Cc1c(C)c2c(c(N)c1C#N)C(=O)N(N)C2=O	> 100	> 100	> 100	> 100	> 100		> 100	> 100	> 100	> 100						
COC(=O)C1=C(CCCCO[Si](C)(C)C(C)(C)C)NC(=O)N2[C@H](CCOCc3ccccc3)CC[C@@H]12		> 100	> 100	> 100			> 100	> 100	> 100							
O=C1c2ccccc2-c2nc3ccncc3n21	> 100	> 100		> 100	> 100		> 100	> 100	> 100	> 100						
Cc1cn(CCCCCCOC(=O)NC(CCCNC(N)=O)C(=O)O)c(=O)[nH]c1=O (configuration not stated)	> 100	> 100	> 100		> 100	> 100	> 100	> 100	> 100	> 100						
CC(Nc1ccc(Cl)cc1)c1ccncc1 (configuration not stated)	> 100	> 100	> 100	> 100	> 100	> 100	> 100		> 100							
NC(=O)CCC(N=c1c2ccccc2n(O)c2ccccc12)C(=O)O (configuration not stated)	> 100	> 100		> 100	> 100	> 100		> 100								
O=c1c2cc(Br)cc(Br)c2[nH]c(=S)n1-c1ccc(N=Nc2ccc(O)c3cccnc23)cc1	> 100	> 100	> 100	43.2		> 100			> 100	> 100						
CCc1nc(N)c2nc(-c3cccs3)oc2n1	> 100	> 100	> 100		> 100	> 100	> 100	> 100	> 100	> 100						
O=P1(N(CCCl)CCCl)Oc2ccc(Cl)cc2C(C(Cl)(Cl)Cl)c2cc(Cl)ccc2O1 (configuration not stated)	> 100	> 100	71.8		> 100	28.7	> 100	26.7	> 100	30.6						
Nc1[nH]c(=O)nc2c1ncn2C1OC(CO)C(O)C1O (configuration not stated)	74.4	> 100	> 100	> 100	75.3	> 100	51.1	> 100	> 100							
C/C(=C1\N=C(c2ccccc2)OC1=O)c1ccccc1	> 100	> 100	> 100	> 100	> 100	> 100		> 100	> 100	> 100						

Compound	TGI [1] [µM]	TGI [2] [µM]	TGI [3] [µM]	TGI [4] [µM]	TGI [5] [µM]	TGI [6] [µM]	TGI [7] [µM]	TGI [8] [µM]	TGI [9] [µM]	TGI [10] [µM]	GI50 [1] [µM]	GI50 [2] [µM]	GI50 [4] [µM]	GI50 [5] [µM]	GI50 [9] [µM]	GI50 [10] [µM]
CC1=C(CO)C(=O)OC(C(C)C2CCC3C4CC5OC56C(O)C(N5CC5)=CC(=O)C6(C)C4CCC23C)C1 (configuration not stated)	5.78	29.6		25.1	7.45	31.1		23.8	24.4	10.5						
C/C(=N\Nc1nc2ccccc2s1)c1ccncn1	1.03	> 35	> 100	20.3	> 100		1.67	> 26.5	> 100	> 100						
Cn1c(=O)c2c(nc3[nH]c(=O)c(Br)cn32)n(C)c1=O	> 100	> 100	> 100		> 100	> 100	> 100	> 100	> 100	> 100						
COC(=O)c1sc(=O)sc1SCc1cccc(CSc2sc(=O)sc2C(=O)OC)c1	> 100	> 100	> 100	49.5	> 100	> 100	> 100	> 100	> 100							
COP(=O)(OC)OCN(C)CC/C=C(\C)CC/C=C(\C)CCC=C(C)C	29.5	40.9	40.2	28.2	51.9	29.3	30.5		19.2							
COc1cc2c[n+]3c4c(c2c(OC)c1OC)CCCC4CC3 (configuration not stated)		> 100	> 100	46.9	> 100		> 100	> 100	> 100							
FC1=C2C3CCC(C3)C2C1(F)F (configuration not stated)	> 100	> 100	> 100	> 100	> 100	> 100	> 100	> 100	> 100							
CCC1(O)CC(CCN(Cc2ccccc2)C(=O)OCc2ccccc2)C(OCc2ccccc2)C1O (configuration not stated)	30.1	27.1	38.2		81.7	86.7	25.7	28.3	34.7	34.9						
CC1=NN(C(=O)CC(=O)Nc2cccc(C)c2)C(=O)C1N=Nc1ccc(S(=O)(=O)CCOS(=O)(=O)O)cc1 (configuration not stated)	> 22.4	50.6		13.6	> 100	5.47		9.34	23.1	> 100						
COC1/C=C/C(C)C(O)CC(O)/C=C/C(C)C(C(C)C(OC)C(C)CCC(=O)C(C)C(C/C=C/N(C)C=O)OC)OC(=O)/C=C/C=C(\C)CC(OC)CC2=CC(=O)O[C@@H](C(C)C(OC)C1)[C@H]2O (some centres not stated)	0.475	0.235	0.906		2.98			0.019	0.169	24.6						
ClC1=NN=C(c2c[nH]c3ccccc23)CC1NCc1ccccc1 (configuration not stated)	> 100	> 100	> 100	> 100	> 100	> 100	> 100	> 100	> 100							
CCOC(=O)c1cc(-c2ccc(OC)cc2)c([N+](=O)[O-])[nH]1	> 10	> 10	> 10	> 10	> 10			> 10	> 10	> 10						
COc1ccc(CCNC(=O)Cc2ccccc2CO)cc1OC	> 100	> 100	> 100		> 100	> 100	> 100	> 100	> 100	> 100						
O=C1c2cc3c(cc2-c2c1c1cc(F)c(F)cc1c(=O)n2CCCn1ccnc1)OCO3	> 100	1.32		1.21	> 100				0.65	16.6	0.022	0.018	0.0856	< 0.01	0.0969	< 0.01
CC1=C(C)C(=O)C(C2=CC(=O)c3ccccc3C2=O)=C(C2=CC(=O)c3ccccc3C2=O)C1=O	> 62.3	> 100	1.19	4.33		> 21.2	> 100	27.6	28.6							
O=C(O)CSC(CC(=O)c1ccc(Cl)cc1)c1ccc(Cl)cc1 (configuration not stated)	57	> 100	> 100		36.3	40.1	> 100	> 100	53.3	7.37						
CSC(SC)=C(C(=O)c1ccc(Cl)cc1)n1c(=O)sc2cc(Br)ccc21	> 100	> 100	> 100	> 100	> 100	> 100	> 100	> 100	> 100							
